Source: the supplement of paper PMC10307832

Key:
Test in all cases: relative viability (nuclei count vs DMSO), 5 days (fraction); higher = more cells survive
[1] = compound: CN(C)C/C=C/C(=O)Nc1cc2c(Nc3ccc(F)c(Cl)c3)ncnc2cc1O[C@H]1CCOC1 [Afatinib]
How it was run: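 Viability is treated-well nuclei as a fraction of vehicle-well nuclei, reported as the median across plates. Before counting, lung cancer cell lines were kept overnight at 37 °C in 1536-well plates, pinned with five √10-spaced library-drug doses on vehicle-anchored plates, and left 5 days without medium change, then fixed, permeabilised and Hoechst-stained in one step, imaged at 4× and counted by MetaXpress. A plate passed only if control CV was below 25% and at least one doubling occurred.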

[2] = compound: CN(C)C/C=C/C(=O)Nc1cc2c(Nc3ccc(F)c(Cl)c3)ncnc2cc1O[C@H]1CCOC1 [Afatinib] + N=C(N)NC(=N)NCCc1ccccc1 [Phenformin] (partner 250 µM)
How it was run: (§1)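 For relative viability, nuclei counts in treated wells were divided by those in vehicle wells. Lung cancer cell lines had been pin-tool dosed in 1536-well plates the day after seeding and cultured for 5 days, then fixed and stained in one step (final 0.05% Triton X-100, 1% formaldehyde, 1 ug/ml Hoechst) and imaged at 4×. Doses were one drug alone or a fixed anchor-drug dose plus five library-drug doses (not always all listed) in √10 steps, and values are duplicate-plate medians.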

[3] = compound: CN(C)C/C=C/C(=O)Nc1cc2c(Nc3ccc(F)c(Cl)c3)ncnc2cc1O[C@H]1CCOC1 [Afatinib] + COc1cccc2cc(-c3nc([C@H]4CC[C@H](C(=O)O)CC4)n4ncnc(N)c34)[nH]c12 [OSI-027] (partner 0.5 µM)
How it was run: as §1

[4] = compound: CN(C)C/C=C/C(=O)Nc1cc2c(Nc3ccc(F)c(Cl)c3)ncnc2cc1O[C@H]1CCOC1 [Afatinib] + CC(=O)Nc1cccc(-n2c(=O)n(C3CC3)c(=O)c3c(Nc4ccc(I)cc4F)n(C)c(=O)c(C)c32)c1 [Trametinib] (partner 0.02 µM)
How it was run: as §1

Cell Line	relative viability ([1]; 0.005 µM)	relative viability ([1]; 0.01581 µM)	relative viability ([1]; 0.05 µM)	relative viability ([1]; 0.1581 µM)	relative viability ([1]; 0.5 µM)	relative viability ([2]; first compound 0.005 µM)	relative viability ([2]; first compound 0.01581 µM)	relative viability ([2]; first compound 0.05 µM)	relative viability ([2]; first compound 0.1581 µM)	relative viability ([2]; first compound 0.5 µM)	relative viability ([3]; first compound 0.005 µM)	relative viability ([3]; first compound 0.01581 µM)	relative viability ([3]; first compound 0.05 µM)	relative viability ([3]; first compound 0.1581 µM)	relative viability ([3]; first compound 0.5 µM)	relative viability ([4]; first compound 0.005 µM)	relative viability ([4]; first compound 0.01581 µM)	relative viability ([4]; first compound 0.05 µM)	relative viability ([4]; first compound 0.1581 µM)	relative viability ([4]; first compound 0.5 µM)
201T	1.01	0.942	0.944	0.92	0.956	0.475	0.444	0.43	0.398	0.387	0.7	0.642	0.722	0.62	0.653	0.688	0.709	0.712	0.673	0.673
A549	0.969	1	0.938	0.867	0.858	0.152	0.154	0.192	0.162	0.15	–	–	–	–	–	–	–	–	–	–
A-427	1.05	0.918	0.99	1.02	1.01	0.33	0.248	0.371	0.267	0.32	0.426	0.321	0.446	0.519	0.358	0.702	0.686	0.733	0.812	0.633
ABC-1	0.876	0.77	0.876	0.874	0.912	0.245	0.241	0.264	0.239	0.325	0.475	0.315	0.453	0.429	0.405	–	–	–	–	–
BEN	1.04	0.897	1.05	1.09	1.06	0.29	0.261	0.251	0.253	0.286	0.326	0.283	0.297	0.299	0.298	1.01	1.1	1.11	0.948	1.01
CAL-12T	1	0.843	0.748	0.489	0.654	0.57	0.388	0.361	0.244	0.407	0.75	0.456	0.392	0.307	0.374	0.278	0.273	0.286	0.247	0.261
COR-L23	1.08	0.944	1.11	1.04	1.01	0.479	0.446	0.449	0.437	0.45	0.941	0.829	0.755	0.739	0.78	0.625	0.648	0.723	0.582	0.608
COR-L 105	0.522	0.387	0.45	0.287	0.309	0.294	0.22	0.211	0.203	0.249	0.346	0.252	0.265	0.245	0.27	0.38	0.315	0.379	0.34	0.352
Calu-6	1.09	1	1.02	0.997	0.986	–	–	–	–	–	–	–	–	–	–	–	–	–	–	–
ChaGo-K-1	1.07	1	0.996	0.977	0.999	0.474	0.466	0.444	0.45	0.431	0.625	0.516	0.515	0.585	0.469	0.922	0.911	0.885	0.866	0.813
EKVX	0.779	0.718	0.51	0.292	0.334	0.218	0.222	0.215	0.129	0.197	0.565	0.509	0.438	0.149	0.231	0.255	0.246	0.216	0.16	0.162
EMC-BAC-2	1.12	0.821	1.14	1.01	1.02	0.502	0.512	0.563	0.462	0.476	0.371	0.355	0.418	0.378	0.352	0.945	0.888	0.823	0.873	0.872
EPLC-272H	0.915	0.687	0.831	0.718	0.718	0.35	0.272	0.231	0.24	0.264	0.279	0.203	0.231	0.213	0.211	0.251	0.265	–	0.229	0.27
H3255	0.418	0.237	0.244	0.244	0.26	0.228	0.23	0.203	0.202	0.228	0.239	0.231	0.214	0.209	0.208	0.297	0.208	0.288	0.195	0.237
HARA	0.947	0.55	0.471	0.62	0.597	0.391	0.27	0.327	0.376	0.375	0.365	0.228	0.163	0.234	0.293	0.417	–	0.38	0.311	0.38
HCC-15	1.04	1.06	1.04	0.979	0.999	0.487	0.487	0.488	0.47	0.517	0.708	0.753	0.733	0.724	0.547	0.338	0.393	0.325	0.35	0.344
HCC-44	1.08	1	1.01	1.02	0.982	0.233	0.184	0.232	0.395	0.239	0.588	0.446	0.521	0.542	0.431	1.04	1.09	1.01	1.04	1.12
